Laboratory results from patent US10626095B2, “Cyanotriazole compounds” (OTSUKA PHARMACEUTICAL CO., LTD., priority 2013, dated 2020).

tested on: NaCT-CHO (CHO cells stably expressing human NaCT); assay: Assay of the citric acid cycle activation ([1,5-14C]-citric acid, diffusion of [14C]-CO2); format: cell-based; conditions: 1 hour incubation at 37° C. with [1,5-14C]-citric acid
Procedure, shortened: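 NaCT-CHO cells (pME-CHO empty-vector cells for non-specific counts) were incubated 1 h at 37 °C in Na+-containing HEPES-Tris pH 7.4 with compound plus an equal volume of 0.4 mM [1,5-14C]-citric acid solution. Residual cell radioactivity was counted, [14C]-CO2 diffusion was taken as (Total−R)/(Total−NS)×100%, and EC50 was derived by regression.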

SMILES	EC50 [µM]
Cc1cc(-c2nccc(C(F)(F)F)n2)cc(-c2nn[nH]c2C#N)c1 [Example 22, 5-[3-methyl-5-(4-trifluoromethyl-pyrimidin-2-yl)-phenyl]-3H-[1,2,3]triazole-4-carbonitrile]	0.65
N#Cc1[nH]nnc1-c1cccc(-c2cc(C(F)(F)F)ccn2)c1 [Example 790, 5-[3-(4-trifluoromethyl-pyridin-2-yl)-phenyl]-3H-[1,2,3]triazole-4-carbonitrile]	0.98
CCN(c1cccc(C(F)(F)F)c1)c1nc(-c2nn[nH]c2C#N)cs1 [Example 84, 5-{2-[N-ethyl-N-(3-trifluoromethyl-phenyl)-amino]-thiazol-4-yl}-3H-[1,2,3]triazole-4-carbonitrile]	1.5
N#Cc1[nH]nnc1-c1cc(Cl)cc(-c2csc3ccccc23)c1 [Example 25, 5-(3-(benzo[b]thiophen-3-yl)-5-chloro-phenyl)-3H-[1,2,3]triazole-4-carbonitrile]	0.54

tested on: Zucker Diabetic Fatty (ZDF) rat; assay: Meal load test in type 2 diabetic model rats (postprandial blood glucose); format: in vivo; design: unit not given here; conditions: ZDF rats fasted overnight, oral 10 mg/kg in 5% Arabia gum, blood glucose one hour after meal loading (50 kcal/kg)
Procedure: Effects on Type 2 Diabetes: Meal Load Test
To evaluate whether a cyanotriazol compound improves diabetes or not, especially related to postprandial blood glucose, meal load test was performed using one of type 2 diabetic model rats, the Zucker Diabetic Fatty (ZDF) rat (Charles river, Japan). About 24 animals fasted overnight (17 h) were taken blood samples from the tail veins, and measured blood glucose levels (Pre BG) and body weights (BW). Proper animals were selected and divided into […] (n=6) based on the Pre BG and BW using SAS Statistical Analysis System (SAS institute Japan Ltd. Release 9.1). The compounds to be tested (10 or 30 mg/kg body weight in 5% Arabia gum) or Arabia gum solution only (vehicle group) were orally administrated via gavage two hours prior to or just before meal loading (50 kcal/kg body weight). The meal suspension was prepared by mixing purified AIN-93G (Norsan Corp, Yokohama, Japan) and distilled water (2:3, w/v). One-hour after meal loading, blood glucose (BG1h) of each animal was measured. Effectiveness of each compound was shown by ? BG1h (BG1h difference between compound group and vehicle group). Although a set of 24 animals was used several times (from 13 weeks to 21 weeks of age), at least a one-week interval was placed from one to another test.

SMILES	BG1h (BG1h difference between compound group and vehicle group)
Cc1cc(-c2nccc(C(F)(F)F)n2)cc(-c2nn[nH]c2C#N)c1 [Example 22, 5-[3-methyl-5-(4-trifluoromethyl-pyrimidin-2-yl)-phenyl]-3H-[1,2,3]triazole-4-carbonitrile]	−108.5
N#Cc1[nH]nnc1-c1cccc(-c2cc(C(F)(F)F)ccn2)c1 [Example 790, 5-[3-(4-trifluoromethyl-pyridin-2-yl)-phenyl]-3H-[1,2,3]triazole-4-carbonitrile]	−61.5

same assay, conditions: ZDF rats fasted overnight, oral 30 mg/kg in 5% Arabia gum, blood glucose one hour after meal loading (50 kcal/kg)

SMILES	BG1h (BG1h difference between compound group and vehicle group)
Cc1cc(-c2ccc(C(F)(F)F)nc2)cc(-c2nn(C(C)OC(=O)OCC(C)(C)C(=O)O)nc2C#N)c1 (stereo not drawn) [Example 1825, 3-(1-{4-cyano-5-[3-methyl-5-(6-trifluoromethyl-pyridin-3-yl)-phenyl]-2H-[1,2,3]triazol-2-yl}-ethoxycarbonyloxy)-2,2-dimethyl-propionic acid]	−48.3
CC(OC(=O)OCC(C)(C)C(=O)O)n1nc(C#N)c(-c2cccc(/C=C/c3cc(C(F)(F)F)ccn3)c2)n1 (stereo not drawn) [Example 1815, 3-[1-(4-cyano-5-{3-[(E)-2-(4-trifluoromethyl-pyridin-2-yl)-vinyl]-phenyl}-2H-[1,2,3]triazol-2-yl)-ethoxycarbonyloxy]-2,2-dimethyl-propionic acid]	−63.2
CCCC(=O)OCn1nc(C#N)c(-c2cc(Cl)cc(/C=C/c3cccc(C(F)(F)F)c3)c2)n1 [Example 1831]	−61.0
CC(OC(=O)OCC(C)(C)C(=O)O)n1nc(C#N)c(-c2cccc(OCc3cc(C(F)(F)F)ccc3C(F)(F)F)c2)n1 (stereo not drawn) [Example 1806, 3-(1-{4-[3-(2,5-bis-trifluoromethyl-benzyloxy)-phenyl]-5-cyano-2H-[1,2,3]triazol-2-yl}-ethoxycarbonyloxy)-2,2-dimethyl-propionic acid]	−86.3
CC(OC(=O)OCC(C)(C)C(=O)O)n1nc(C#N)c(-c2cc(Cl)cc(/C=C/c3cccc(C(F)(F)F)c3)c2)n1 (stereo not drawn) [Example 1811, 3-[1-(4-{3-chloro-5-[(E)-2-(3-trifluoromethyl-phenyl)-vinyl]-phenyl}-5-cyano-2H-[1,2,3]triazol-2-yl)-ethoxycarbonyloxy]-2,2-dimethyl-propionic acid]	−84.5
CC(OC(=O)OCC(C)(C)C(=O)O)n1nc(C#N)c(-c2cc(Cl)cc(-c3ccc4c(c3)OC(F)(F)O4)c2)n1 (stereo not drawn) [Example 1808, 3-(1-{4-[3-chloro-5-(2,2-difluoro-benzo[1,3]dioxol-5-yl)-phenyl]-5-cyano-2H-[1,2,3]triazol-2-yl}-ethoxycarbonyloxy)-2,2-dimethyl-propionic acid]	−76.0
Cc1sc(-c2ccc(C(F)(F)F)cc2)nc1-c1nn(C(C)OC(=O)OCC(C)(C)C(=O)O)nc1C#N (stereo not drawn) [Example 1820, 3-(1-{4-cyano-5-[5-methyl-2-(4-trifluoromethyl-phenyl)-thiazol-4-yl]-2H-[1,2,3]triazol-2-yl}-ethoxycarbonyloxy)-2,2-dimethyl-propionic acid]	−77.0
CC(=O)OCn1nc(C#N)c(-c2cc(C)cc(-c3nccc(C(F)(F)F)n3)c2)n1 [Example 1829, acetic acid 4-cyano-5-[3-methyl-5-(4-trifluoromethylpyrimidin-2-yl)phenyl]-2H-[1,2,3]triazol-2-ylmethyl ester]	−93.7
CC(OC(=O)OCC(C)(C)C(=O)O)n1nc(C#N)c(-c2csc(-c3ccc(Cl)c(Cl)c3)n2)n1 (stereo not drawn) [Example 1819, 3-(1-{4-cyano-5-[2-(3,4-dichloro-phenyl)-thiazol-4-yl]-2H-[1,2,3]triazol-2-yl}-ethoxycarbonyloxy)-2,2-dimethyl-propionic acid]	−54.3
CC(OC(=O)OCCO)n1nc(C#N)c(-c2cccc(OCc3cc(C(F)(F)F)ccc3C(F)(F)F)c2)n1 (stereo not drawn) [Example 1828, carbonic acid 1-{4-[3-(2,5-bis-trifluoromethylbenzyloxy)phenyl]-5-cyano-2H-[1,2,3]triazol-2-yl}ethyl ester-2-hydroxyethyl ester]	−69.3
CC(OC(=O)OCC(C)(C)C(=O)O)n1nc(C#N)c(-c2nc(-c3cccc(C(F)(F)F)c3)sc2Cl)n1 (stereo not drawn) [Example 1817, 3-(1-{4-[5-chloro-2-(3-trifluoromethyl-phenyl)-thiazol-4-yl]-5-cyano-2H-[1,2,3]triazol-2-yl}-ethoxycarbonyloxy)-2,2-dimethyl-propionic acid]	−106.5
CC(OC(=O)OCC(C)(C)C(=O)O)n1nc(C#N)c(-c2csc(-c3ccc(Cl)cc3)n2)n1 (stereo not drawn) [Example 1814]	−108.7
CC(OC(=O)OCC(C)(C)C(=O)O)n1nc(C#N)c(-c2cccc(/C=C/c3nccc(C(F)(F)F)n3)c2)n1 (stereo not drawn) [Example 1816, 3-[1-(4-cyano-5-{3-[(E)-2-(4-trifluoromethyl-pyrimidin-2-yl)-vinyl]-phenyl}-2H-[1,2,3]triazol-2-yl)-ethoxycarbonyloxy]-2,2-dimethyl-propionic acid]	−45.5
CC(OC(=O)OC(C)(C)CC(=O)O)n1nc(C#N)c(-c2cccc(OCc3cc(C(F)(F)F)ccc3C(F)(F)F)c2)n1 (stereo not drawn) [Example 1827, 3-(1-{4-[3-(2,5-bis-trifluoromethylbenzyloxy)phenyl]-5-cyano-2H-[1,2,3]triazol-2-yl}ethoxycarbonyloxy)-3-methylbutyric acid]	−82.5
COc1cc(-c2cc(C(F)(F)F)ccn2)cc(-c2nn(C(C)OC(=O)OCC(C)(C)C(=O)O)nc2C#N)c1 (stereo not drawn) [Example 1812, 3-(1-{4-cyano-5-[3-methoxy-5-(4-trifluoromethyl-pyridin-2-yl)-phenyl]-2H-[1,2,3]triazol-2-yl}-ethoxycarbonyloxy)-2,2-dimethyl-propionic acid]	−111.8
CC(OC(=O)OCC(C)(C)C(=O)O)n1nc(C#N)c(-c2cc(Cl)cc(-c3nccc(C(F)(F)F)n3)c2)n1 (stereo not drawn) [Example 1810, 3-(1-{4-[3-chloro-5-(4-trifluoromethyl-pyrimidin-2-yl)-phenyl]-5-cyano-2H-[1,2,3]triazol-2-yl}-ethoxycarbonyloxy)-2,2-dimethyl-propionic acid]	−53.2
CC(C)c1oc(-c2ccc(Cl)cc2)nc1-c1nn(C(C)OC(=O)OCC(C)(C)C(=O)O)nc1C#N (stereo not drawn) [Example 1822, 3-(1-{4-[2-(4-chloro-phenyl)-5-isopropyl-oxazol-4-yl]-5-cyano-2H-[1,2,3]triazol-2-yl}-ethoxycarbonyloxy)-2,2-dimethyl-propionic acid]	−36.0
CC(=O)OCn1nc(C#N)c(-c2cc(Cl)cc(/C=C/c3cccc(C(F)(F)F)c3)c2)n1 [Example 1830, acetic acid 4-{3-chloro-5-[(E)-2-(3-trifluoromethylphenyl)vinyl]phenyl}-5-cyano-2H-[1,2,3]triazol-2-ylmethyl ester]	−52.5
CC(OC(=O)OCC(C)(C)C(=O)O)n1nc(C#N)c(-c2csc(-c3cccc(OC(F)(F)F)c3)n2)n1 (stereo not drawn) [Example 1818, 3-(1-{4-cyano-5-[2-(3-trifluoromethoxy-phenyl)-thiazol-4-yl]-2H-[1,2,3]triazol-2-yl}-ethoxycarbonyloxy)-2,2-dimethyl-propionic acid]	−33.0
Cc1sc(-c2ccc(F)c(Cl)c2)nc1-c1nn(C(C)OC(=O)OCC(C)(C)C(=O)O)nc1C#N (stereo not drawn) [Example 1823, 3-(1-{4-[2-(3-chloro-4-fluoro-phenyl)-5-methyl-thiazol-4-yl]-5-cyano-2H-[1,2,3]triazol-2-yl}-ethoxycarbonyloxy)-2,2-dimethyl-propionic acid]	−63.3
CC(OC(=O)OCC(C)(C)C(=O)O)n1nc(C#N)c(-c2cc(/C=C/c3cccc(C(F)(F)F)n3)cc(C(F)(F)F)c2)n1 (stereo not drawn) [Example 1813, 3-[1-(4-cyano-5-{3-trifluoromethyl-5-[(E)-2-(6-trifluoromethyl-pyridin-2-yl)-vinyl]-phenyl}-2H-[1,2,3]triazol-2-yl)-ethoxycarbonyloxy]-2,2-dimethyl-propionic acid]	−73.0
